Experimental data: patent EP4183391A1, “PHARMACEUTICAL COMPOSITION AND USE THEREOF” (Shenzhen Salubris Pharmaceuticals Co., Ltd., priority 2020, dated 2022)
Where a name gives a salt, the structure may show the parent alone.

How the values were obtained:
male C57BL/6J mice = test: Relieving a cough in mice, concentrated ammonia steam (Example 5); format: in vivo; details: 60 min
Experimental: Ammonium Hydroxide, ACS Reagent, 28.0-30.0% NH3, AI LAN (Shanghai) Chemical Technology Co., Ltd., batch no. CEC1070004. Ultrasonic Nebulizer WH-2000, Guangdong Yuehua Medical Equipment Factory Co., Ltd.
88 male C57BL/6J mice, weighing 20-22 g, were purchased from Beijing Vital River Laboratory Animal Technology Co., Ltd.
Mice in each group were administered with 1 dose of the corresponding experimental drugs to be tested in a volume of 10 ml/kg. After 60 min of administration, the mice were placed in an inverted 600 ml beaker filled with concentrated ammonia saturated steam and immediately timed for 10 s, and then the mice were removed and placed in another inverted 600 ml beaker to observe the coughing of the mice and recorded the total coughs within 5 min.
All experimental data are expressed as means. Statistical analysis was carried out using Graphad Prism 5 software. One-way ANOVA test was used for comparison between groups. SNK was used for comparison between groups with equal variance. Dunnett's T3 was used for comparison between groups with unequal variance. P < 0.05 indicated statistical significance.

male ICR mice = test: Mouse tail suspension model; format: in vivo; details: immobility time
Experimental: 110 male ICR mice were accommodated in the experimental environment for 3 days prior to the test, with 10 animals reserved for future use.
According to the experimental design, the mice were randomly grouped according to their body weight at one day before administration.
The time of initiation of administration was defined as 0 min.
The 2 cm tail end of the mouse was attached to a horizontal metal stick so that the mouse was suspended and the immobility time period of the mouse was observed and recorded over a period of 6 min. The last 4 min of immobility time period was recorded by a timer and was used for data analysis.
Excel software was used to collect data. Data were analyzed using Prism (Graphpad software, Inc.) software, in which variance between two groups was analyzed using the t-test method, and one-way ANOVA with additional Dunnett's multiple comparison test was performed among each animal group. p<0.05 is considered as having a significant difference.

[1] = Pharmacokinetic experiments in dogs; details: 14 mg/kg single gavage, Day1, analyte deDM in plasma
Experimental: Reagents: Sodium chloride injection, EDTA-K2, acetonitrile and formic acid were commercially available.
Instrument: AB SCIEX 5500 triple quadrupole mass spectrometer.
18 Beagle dogs, half male and half female, weighing 6 kg-10 kg, were purchased from Jiangsu Yadong Experimental Animal Research Institute Co., Ltd.
After single gavage administration in dogs, about 1 mL of blood was collected with a scalp needle from a vein in the forelimb or hindlimb at 0 min (before administration), 5 min, 15 min, 30 min, 1 h, 2 h, 4 h, 8 h and 24 h in a blood collection tube containing EDTA-K2 anticoagulant and then centrifuged at 4000 rpm for 10 min to separate the plasma which was stored at ≤- 65°C for testing.
The standard curve concentrations of dextromethorphan in plasma were 1 ng/mL, 2 ng/mL, 10 ng/mL, 50 ng/mL, 200 ng/mL, 400 ng/mL, 600 ng/mL and 1000 ng/mL and QC concentrations were 3 ng/mL, 30 ng/mL, 500 ng/mL and 800 ng/mL.

In the case of `[2H]C([2H])([2H])Oc1ccc2c(c1)[C@]13CCCC[C@@H]1[C@H](C2)N(C([2H])([2H])[2H])CC3` [Deuterated dextromethorphan], the Cough inhibition rate% (male C57BL/6J mice; 3 mg/kg) is reported as 11.6% and the Cough inhibition rate% (male C57BL/6J mice; 12 mg/kg) is reported as 22.5%.

In the case of `CC(NC(C)(C)C)C(=O)c1cccc(Cl)c1` (stereo not drawn) [Bup, bupropion hydrochloride, reference compound], the Inhibition rate (male ICR mice; 50 mg/kg oral) is reported as 56.00%^∗∗.

For `CC(NC(C)(C)C)C(=O)c1cccc(Cl)c1` (stereo not drawn) [Bupropion, 1-(3-chlorophenyl)-2-[(1,1-dimethylethyl)amino]-1-propanone, reference compound], the Cough inhibition rate% (male C57BL/6J mice; 30 mg/kg) was 9.1%.

For “deuterated dextromethorphan hydrobromide monohydrate [deDM]”, the Inhibition rate (male ICR mice; 10 mg/kg oral) was 5.0%, the Inhibition rate (male ICR mice; 12 mg/kg oral) was 2.1% and the Inhibition rate (male ICR mice; 15 mg/kg oral) was 5.9%. For the same compound, the Inhibition rate (male ICR mice; 18 mg/kg oral) was 4.1%, the AUClast ([1]; Female) was 153 h^∗ng/ml and the Cmax ([1]; Female) was 60 ng/mL. It also gave an AUClast ([1]; Male) of 383 h^∗ng/ml and a Cmax ([1]; Male) of 157 ng/mL.
